Laboratory results published in patent US20240400560A1, “BICYCLIC HETEROCYCLIC DERIVATIVE HAVING VIRAL GROWTH INHIBITORY ACTIVITY AND PHARMACEUTICAL COMPOSITION CONTAINING SAME” (Shionogi & Co., Ltd., priority 2021, published 2024).
Read-outs that look alike come from different tables or passages of the source.

What was measured:
[1] = test system: SARS-CoV-2; experiment: Inhibitory activity of cytopathic effect (CPE) in HEK293T/ACE2-TMPRSS2 cells; format: cell-based; details: Severe acute respiratory syndrome coronavirus 2, HEK-293T, 72 h
[2] = target: SARS-CoV-2 3CL protease (Severe acute respiratory syndrome coronavirus 2, UniProt P0DTD1); experiment: Inhibitory activity test against SARS-CoV-2 3CL proteases; format: biochemical
[3] = HEK293T/ACE2-TMPRSS2 cells, cultured 3 days, CellTiter-Glo 2.0 luminescence, read-out: EC50 (50% SARS-CoV-2 infected cell death inhibitory concentration)
[4] = read-out: IC50 (50% SARS-CoV-2 3CL protease inhibitory concentration)
[5] = IC50 (50% SARS-CoV-2 3CL protease inhibitory concentration)
[6] = 50% SARS-CoV-2 infected cell death inhibitory concentration, HEK293T/ACE2-TMPRSS2 cells, CellTiter-Glo 2.0 after 3 days culture, read-out: EC50

SMILES | EC50 [1, 3] [nM] | IC50 [2, 4] [nM] | IC50 [2, 5] [nM] | EC50 [1, 6] [nM] | EC50 ([1]; read-out: EC50 (50% SARS-CoV-2 infected cell death inhibitory concentration)) [nM]
COc1nc(N2CC[C@@H](C#N)C2)cc2c1c(=O)n(-c1cncc(F)c1)c(=O)n2-c1ccc(F)c(Cl)c1 [Compound I-0938] | < 100 | < 100 |  |  | 
COc1ccc(Cl)c(-c2cc3c(nc2OC)c(=O)n(Cc2ncn(C)n2)c(=O)n3Cc2cc(F)c(F)c(Cl)c2)n1 [Compound I-0820] | < 100 | < 100 |  |  | 
COC[C@@H](C)Nc1cc2c(c(OC)n1)c(=O)n(-c1cnc3cc(F)ccn13)c(=O)n2-c1ccc(F)c(Cl)c1 [Compound I-1061] | < 100 | < 100 |  |  | 
COc1nc(N2CC[C@H](OC)C2)cc2c1c(=O)n(-c1cnc3cc(F)ccn13)c(=O)n2-c1ccc(F)c(Cl)c1 [Compound I-0742] | < 100 | < 100 |  |  | 
COc1nc(N2CC(F)(F)C2)cc2c1c(=O)n(-c1cnc3cc(F)ccn13)c(=O)n2-c1ccc(F)c(Cl)c1 [Compound I-1035] | < 100 |  | < 100 |  | 
COc1nc(N2CC[C@@H](O)C2)cc2c1c(=O)n(-c1cncc(OCF)c1)c(=O)n2-c1ccc(F)c(Cl)c1 [Compound I-0956] | < 100 | < 100 |  |  | 
COc1nc(N2CCC(F)(F)C2)cc2c1c(=O)n(-c1cncc(C(F)F)c1)c(=O)n2-c1ccc(F)c(Cl)c1 [Compound I-1018] | < 100 | < 100 |  |  | 
Cn1cnc(Cn2c(=O)c3c4nccnc4c(-c4cc5c(cc4Cl)NC(=O)C5)cc3n(Cc3cc(F)c(F)c(F)c3)c2=O)n1 [Compound I-0933] | 100 to 1000 | < 100 |  |  | 
COc1nc(N(C)C(C)C)cc2c1c(=O)n(-c1cnc3cc(F)ccn13)c(=O)n2-c1ccc(F)c(Cl)c1 [Compound I-1034] | < 100 | < 100 |  |  | 
O=c1c2c(=O)n(-c3cnc4cc(F)ccn34)c(=O)n(-c3ccc(F)c(Cl)c3)c2cc2n1CC[C@@H]1CCCCN21 [Compound I-1048] |  | 23 |  | 436 | 
Cn1cnc(Cn2c(=O)c3c(cc(-c4cc(C#N)ccc4Cl)n4ncnc34)n(Cc3cc(F)c(F)c(F)c3)c2=O)n1 [Compound I-0645] | 100 to 1000 | 100 to 1000 |  |  | 
COc1nc(-c2cc(C#N)ccc2Cl)cc2c1c(=O)n(-c1cnc3ccc(F)cn13)c(=O)n2Cc1cc(F)c(F)c(F)c1 [Compound I-0680] | < 100 | < 100 |  |  | 
Cn1cnc(Cn2c(=O)c3c4c(c(-c5cc(C#N)ccc5Cl)cc3n(Cc3cc(F)c(F)c(F)c3)c2=O)[C@@H](O)CO4)n1 [Compound I-0864] |  | 1.4 |  | 46.2 | 
COc1nc(N2CCC3(CCOC3)C2)cc2c1c(=O)n(-c1cnc3cc(F)ccn13)c(=O)n2-c1ccc(F)c(Cl)c1 (stereo not shown) [Compound I-1060] | < 100 | < 100 |  |  | 
COc1nc2c(=O)n(Cc3ncn(C)n3)c(=O)n(Cc3cc(F)c(F)c(Cl)c3)c2cc1-c1cc(N=S(C)(C)=O)ccc1Cl [Compound I-0887] |  | 9.8 |  | 98.2 | 
COc1nc(N2CCC(F)(F)C2)cc2c1c(=O)n(-c1cnc3ccccn13)c(=O)n2-c1ccc(F)c(Cl)c1 [Compound I-0808] | < 100 | < 100 |  |  | 
COc1nc(N2[C@H]3CC[C@@H]2[C@@H](O)C3)cc2c1c(=O)n(Cc1ncn(C)n1)c(=O)n2Cc1cc(F)c(F)c(F)c1 [Compound I-0602] |  |  | < 100 |  | < 100
COc1nc(N2CC[C@@H](C#N)C2)cc2c1c(=O)n(-c1cncc(OC(F)F)c1)c(=O)n2-c1ccc(F)c(F)c1 [Compound I-0995] | < 100 | < 100 |  |  | 
COc1nc(N2CCC(S(C)(=O)=O)C2)cc2c1c(=O)n(-c1cnc3cc(F)ccn13)c(=O)n2-c1ccc(F)c(Cl)c1 (stereo not shown) [Compound I-1007] | 100 to 1000 | < 100 |  |  | 
COc1nc(N2CC[C@@H](O)C2)cc2c1c(=O)n(-c1cncc(Cl)c1)c(=O)n2-c1ccc(F)c(F)c1 [Compound I-0979] | < 100 | < 100 |  |  | 
COc1nc(C2CCOCC2)cc2c1c(=O)n(-c1cnc3cc(F)ccn13)c(=O)n2-c1ccc(F)c(Cl)c1 [Compound I-1021] |  | 12 |  | 16.1 | 
COc1nc(N2CC[C@@H](C#N)C2)cc2c1c(=O)n(-c1cncc(OCF)c1)c(=O)n2-c1ccc(F)c(Cl)c1 [Compound I-0941] | < 100 | < 100 |  |  | 
COc1nc(N2CC[C@@H](O)C2)cc2c1c(=O)n(-c1cncc(OC(F)F)c1)c(=O)n2-c1ccc(F)c(Cl)c1 [Compound I-0968] | < 100 | < 100 |  |  | 
COc1cc(-c2ncccc2Cl)cc2c1c(=O)n(Cc1ncn(C)n1)c(=O)n2Cc1cc(F)c(F)c(F)c1 [Compound I-0838] | 100 to 1000 | < 100 |  |  | 
COc1cc(-c2cc3nc(C(F)F)[nH]c3cc2Cl)cc2c1c(=O)n(Cc1ncn(C)n1)c(=O)n2Cc1cc(F)c(F)c(F)c1 [Compound I-0848] | 100 to 1000 | < 100 |  |  | 

SMILES | EC50 [1, 3] [nM] | IC50 [2, 4] [nM] | IC50 [2, 5] [nM] | EC50 [1, 6] [nM] | EC50 ([1]; read-out: EC50 (50% SARS-CoV-2 infected cell death inhibitory concentration)) [nM]
[2H]C([2H])([2H])O[C@@H]1CCN(c2cc3c(c(OC)n2)c(=O)n(-c2cnc4cc(F)ccn24)c(=O)n3-c2ccc(F)c(C(F)(F)F)c2)C1 [Compound I-1011] | < 100 | < 100 |  |  | 
[2H]C([2H])([2H])O[C@@H]1CCN(c2cc3c(c(OC)n2)c(=O)n(-c2cnc4cc(F)ccn24)c(=O)n3-c2cc(Cl)c(F)c(OC)c2)C1 [Compound I-0764] | < 100 | < 100 |  |  | 
COc1nc(N2CC[C@@H](C#N)C2)cc2c1c(=O)n(-c1cnc3cc(F)ccn13)c(=O)n2-c1ccc(F)c(Cl)c1 [Compound I-0652] |  | 1.4 |  | 7.43 | 
Cl.[2H]C([2H])([2H])O[C@@H]1CCN(c2cc3c(c(OC)n2)c(=O)n(-c2cnc4cc(F)c(F)cn24)c(=O)n3-c2ccc(F)c(Cl)c2)C1 [Compound I-0962] | < 100 | < 100 |  |  | 
COc1nc(N2CC[C@@H](F)C2)cc2c1c(=O)n(Cc1ncn(C)n1)c(=O)n2-c1cc(Cl)c(F)c(Cl)c1 [Compound I-0803] |  | 32 |  | 17.6 | 
Cn1cnc(Cn2c(=O)c3c4nccnc4c(-c4cc(C(C)(C)O)ccc4Cl)cc3n(Cc3cc(F)c(F)c(Cl)c3)c2=O)n1 [Compound I-0810] |  | 1.3 |  | 19.4 | 
COc1nc(N2CC[C@@H](O)C2)cc2c1c(=O)n(-c1cnc3cc(F)c(F)cn13)c(=O)n2-c1ccc(F)c(Cl)c1 [Compound I-0967] | < 100 | < 100 |  |  | 
Cn1cnc(Cn2c(=O)c3c4c(c(-c5cc(C(C)(C)O)ccc5Cl)cc3n(Cc3cc(F)c(F)c(Cl)c3)c2=O)CCO4)n1 [Compound I-0812] |  | 1.1 |  | 15.8 | 
COc1nc(N2CC[C@@H](C#N)C2)cc2c1c(=O)n(-c1cnc3cc(F)ccn13)c(=O)n2Cc1cc(F)c(F)c(Cl)c1 [Compound I-0736] |  | 12 |  | 20.1 | 
Cn1cnc(Cn2c(=O)c3c4c(c(-c5ncc(F)cc5Cl)cc3n(Cc3cc(F)c(F)c(Cl)c3)c2=O)CCO4)n1 [Compound I-0561] | < 100 | < 100 |  |  | 
COc1nc2c(=O)n(Cc3ncn(C)n3)c(=O)n(Cc3cc(F)c(F)c(Cl)c3)c2cc1-c1nc(C(C)(C)O)ccc1Cl [Compound I-0880] |  | 4.4 |  | 17.8 | 
Cn1cnc(Cn2c(=O)c3ncc(N4C[C@H]5C[C@@H]4CN5)nc3n(Cc3cc(F)c(F)c(F)c3)c2=O)n1 [Compound I-0684] |  | 370 |  | 4580 | 
COc1nc(C2=CCOCC2)cc2c1c(=O)n(-c1cnc3cc(F)ccn13)c(=O)n2-c1ccc(F)c(Cl)c1 [Compound I-1016] | < 100 | < 100 |  |  | 
COc1cc(N2CCCC2)cc2c1c(=O)n(Cc1ncn(C)n1)c(=O)n2Cc1cc(Cl)ccc1Cl [Compound I-0784] | 100 to 1000 | < 100 |  |  | 
COc1nc(N2CC[C@@H](OC(F)F)C2)cc2c1c(=O)n(-c1cnc3cc(F)ccn13)c(=O)n2-c1ccc(F)c(F)c1 [Compound I-1024] | < 100 | < 100 |  |  | 
COc1nc(N2CCC(F)(F)C2)cc2c1c(=O)n(-c1cc(C)cnn1)c(=O)n2-c1ccc(F)c(Cl)c1 [Compound I-1003] | < 100 | < 100 |  |  | 
[2H]C([2H])([2H])O[C@@H]1CCN(c2cc3c(c(OC)n2)c(=O)n(-c2cc(C)cnn2)c(=O)n3-c2ccc(F)c(Cl)c2)C1 [Compound I-0972] | < 100 | < 100 |  |  | 
COc1cc(-c2cn3nncc3cc2Cl)cc2c1c(=O)n(Cc1ncn(C)n1)c(=O)n2Cc1cc(F)c(F)c(F)c1 [Compound I-0914] | < 100 | < 100 |  |  | 
COc1nc2c(=O)n(Cc3ncn(C)n3)c(=O)n(Cc3cc(Cl)c(F)cc3C)c2cc1-c1nc(C(F)F)ccc1Cl [Compound I-0884] | < 100 | < 100 |  |  | 
COc1cc(N2C[C@H]3C[C@@H]2CN3)cc2c1c(=O)n(Cc1ncn(C)n1)c(=O)n2Cc1cc(F)c(F)c(F)c1 [Compound I-0395] |  | 2.2 |  |  | 
CC1Cc2c(-c3cc(C#N)ccc3Cl)cc3c(c2O1)c(=O)n(Cc1ncn(C)n1)c(=O)n3Cc1cc(F)c(F)c(F)c1 (stereo not shown) [Compound I-0439] |  | 4.7 |  |  | 
O=C1Cc2cc(-c3cc(F)c4c(=O)n(-c5cncc(Cl)c5)c(=O)n(Cc5cc(Cl)c(F)cn5)c4c3)c(Cl)cc2N1 [Compound I-0077] |  | < 100 |  |  | 
Cn1cnc(Cn2c(=O)c3c(=O)[nH]c(-c4cc(C#N)ccc4Cl)cc3n(Cc3cc(F)c(F)c(F)c3)c2=O)n1 [Compound I-0177] |  | 34 |  |  | 
COc1cc(-c2cc(C(=O)NCCN3CCOCC3)ccc2Cl)cc2c1c(=O)n(Cc1ncn(C)n1)c(=O)n2Cc1cc(F)c(F)c(F)c1 [Compound I-0217] |  | < 100 |  |  | 
COc1nc(N2CC[C@@H](F)C2)cc2c1c(=O)n(Cc1ncn(C)n1)c(=O)n2Cc1cc(F)c(F)c(F)c1 [Compound I-0453] |  |  | 2.5 |  | 
